# Patent US9320753B2, “Organ arrest, protection and preservation” (priority 1999, dated 2016)
# Columns and labels:
# [1] = cited from earlier work
# [2] = system: isolated working rat heart; test: Lignocaine alone in the isolated working rat heart; conditions: lignocaine alone at 0.5, 1.0 and 1.5 mM
# Text: Lignocaine is a local anaesthetic which blocks sodium fast channels and has antiarrhythmatic properties by reducing the magnitude of inward sodium current. The accompanying shortening of the action potential is thought to directly reduce calcium entry into the cell via Ca^2+ selective channels and Na^+/Ca^2+ exchange. Recent reports also implicate lignocaine with the scavenging of free radicals such as hydroxyl and singlet oxygen in the heart during reperfusion.
# heart = test: Arrest with pinacidil plus local anaesthetics (Example 7); conditions: arrest solutions with local anaesthetics
# Method: Arrest solutions were made with pinacidil dissolved in 0.05% dimethysulfoxide (DMSO) (200 μM) the local anaesthetics prilocalne, procaine, mepivacaine and lignocaine in Krebs-Henseleit solution.
# [3] = requires a carrier (DMSO); cited from earlier work
structure (smiles),measurement,setting,value
Nc1ncnc2c1ncn2[C@@H]1O[C@H](CO)[C@@H](O)[C@H]1O [adenosine],half life in the blood,[1],about 10 seconds
CCN(CC)CC(=O)Nc1c(C)cccc1C [lignocaine],functional recoveries,[2],highly variable functional recoveries
CC(N/C(=N\C#N)Nc1ccncc1)C(C)(C)C (stereo not shown) [pinacidil],effectiveness compared with adenosine,heart,not as effective as adenosine
same,solubility in aqueous solutions,[3],low solubility in aqueous solutions
